Reference: patent publication US20240408169A1 (priority 2023, published 2024)
Where two headings read alike, the source gives them in different places. *1 amine or outer side, *2 acyl side, *3 side chain or, on linkers, in order; H or OH if unused. Where a SMILES comes first, the peptide text is derived from it. Bridges are numbered along the chain shown (N, C = ends). [ ]: non-standard residue; d: D form. The star is where a group is joined. X75 = CC(C)C(=O)N1C2C=C(c3ccc(Cl)cc3C[C@@H](C(=O)[*:2])N(C)[*:1])CC1COC2; X57 = CC(C)C(=O)N1C2C=C(c3ccc(Cl)cc3C[C@@H](C(=O)[*:2])N(C)[*:1])CC1CC2; X68 = CN([C@@H](Cc1cc(Cl)ccc1-c1cnn(C2CC2)c1)C(=O)[*:2])[*:1]; X14 = Cc1nc(C)c(-c2ccc(Cl)cc2C[C@@H](C(=O)[*:2])N(C)[*:1])s1; X89 = CN([C@@H](Cc1cc(Cl)ccc1-c1cnn(CC#N)c1)C(=O)[*:2])[*:1]; NMehhhLys(Me) = CN([C@@H](CCCCCCCN(C)[*:3])C(=O)[*:2])[*:1]; Spiro(3.3)heptane2CO(2-CF3) = O=C(C1(C(F)(F)F)CC2(CCC2)C1)*; X15 = CN([C@@H](Cc1cc(Cl)ccc1-c1cnn2c1CCC2)C(=O)[*:2])[*:1]; X5 = CN([C@@H](Cc1cc(Cl)ccc1-c1cnn2c1OCCC2)C(=O)[*:2])[*:1]; X51 = CSc1cncc(-c2ccc(Cl)cc2C[C@@H](C(=O)[*:2])N(C)[*:1])c1; X22 = CN([C@@H](Cc1cc(Cl)ccc1-c1cnn(C)c1)C(=O)[*:2])[*:1]; X109 = CN([C@@H](Cc1cc(Cl)ccc1-c1ccncc1)C(=O)[*:2])[*:1]; NMe(hhhLys) = CN([C@@H](CCCCCCCN[*:3])C(=O)[*:2])[*:1]; NMe3Pal(2-OMe,5-Cl) = CN[C@@H](Cc1cc(Cl)cnc1OC)C(=O)O; Oxane2carbonyl(2R-CF3) = O=C([C@@]1(C(F)(F)F)CCCCO1)*; Cyclobutanecarbonyl(1-CF3) = O=C(C1(C(F)(F)F)CCC1)*; cBuCO(3,3-F2-1-CF3) = O=C(C1(C(F)(F)F)CC(F)(F)C1)*; X25 = CCOc1ncc(Cl)cc1C[C@@H](C(=O)[*:2])N(C)[*:1]; Pro(trans-4-F) = O=C(O)[C@@H]1C[C@@H](F)CN1; Gly(cPr) = N[C@H](C(=O)O)C1CC1

Experiments:
[1] = tested on: OVCAR3 cells; experiment: MTT proliferation assay, OVCAR3; assay type: cell-based; settings: 5 days compound exposure, 1:3 serial dilution starting at 10 μM;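 note: compound given as an 8- or 10-point series, one day after plating, with exposure covering roughly 3-4 cell doublings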
[2] = target: T1, CyclinB1/CDK1 (Homo sapiens, UniProt P14635); experiment: Fluorescence Polarization (FP) competitive binding assay, Cyclin B1/Cdk1;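 note: fluorescence polarization read after equilibration at room temperature, with IC50 taken from serially diluted dose-response curves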
T1 construct: purchased Eurofins, discovery 14-450

[3] = tested on: WI-38 cells; experiment: MTT proliferation assay, WI-38; assay type: cell-based; settings: 3 days compound exposure, 1:3 serial dilution starting at 10 μM;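 note: Eight- or ten-point dilution series, with exposure length chosen to span about three to four cell doublings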
[4] = target: T2, CyclinA2/CDK2 (Homo sapiens, UniProt P20248); experiment: Fluorescence Polarization (FP) competitive binding assay, Cyclin A2/Cdk2;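 note: plates equilibrated two hours at room temperature before polarization reading, IC50 fitted from eight-concentration compound titration curves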
T2 construct: purchased CRELUX Protein Services

[5] = tested on: NCI-H1048 cells; experiment: MTT proliferation assay, NCI-H1048; assay type: cell-based; settings: 5 days compound exposure, 1:3 serial dilution starting at 10 μM;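 note: Dose-response in 96-well plates over 8 or 10 concentration points, with exposure spanning 3-4 cell doublings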
[6] = target: T3, CyclinE1/CDK2 (Homo sapiens, UniProt P24864); experiment: Fluorescence Polarization (FP) competitive binding assay, Cyclin E1/Cdk2;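 note: readings taken after two-hour equilibration at room temperature in HEPES buffer with NaCl, DTT, NP-40 and BSA, IC50 fitted from eight-concentration serial dilution series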
T3 construct: purchased Eurofins, discovery 14-475

[7] = 10 nM Cyclin B1/Cdk1, 2 nM FAM probe; average of 2-3 independent experiments; read-out: Cyclin B FP IC50
[8] = 8 nM Cyclin A2/Cdk2, 2 nM FAM probe, average of 2-3 independent experiments, read-out: Cyclin A FP IC50
[9] = 10 nM Cyclin E1/Cdk2, 2 nM FAM probe, average of 2-3 independent experiments, read-out: Cyclin E FP IC50
[10] = read-out: Cyclin B FP IC50; 10 nM Cyclin B1/Cdk1, 2 nM FAM probe; average of 2-3 independent experiments
[11] = read-out: Cyclin A FP IC50, 8 nM Cyclin A2/Cdk2, 2 nM FAM probe, average of 2-3 independent experiments

SMILES | GI50 [1] | IC50 [2, 7] | GI50 [3] | IC50 [4, 8] | GI50 [5] | IC50 [6, 9] | IC50 [2, 10] | IC50 [4] | IC50 [6] | IC50 [4, 11]
CC(C)C[C@@H]1NC(=O)[C@@H](N(C)C(=O)[C@@H](NC(=O)[C@@H]2C[C@@H](F)CN2C(=O)C2(C(F)(F)F)CCC2)C2CC2)CCCCCCCNC(=O)[C@H](Cc2cc(Cl)ccc2-c2cnn(C3CC3)c2)N(C)C1=O [Example 188] ({Cyclobutanecarbonyl(1-CF3)}-[Pro(trans-4-F)][Gly(cPr)][NMe(hhhLys)]L[X68]; lactam 3-C) | 20 nM | 20 nM | 3080 nM | 20 nM | 10 nM | 230 nM | – | – | – | –
CC(C)C[C@@H]1NC(=O)[C@@H](N(C)C(=O)[C@@H](NC(=O)[C@@H]2C[C@@H](F)CN2C(=O)C2(C(F)(F)F)CC(F)(F)C2)C2CC2)CC=CCCCCNC(=O)[C@H](Cc2cc(Cl)ccc2-c2cnn(C3CC3)c2)N(C)C1=O [Example 189] | 80 nM | 20 nM | 3670 nM | 50 nM | 130 nM | 850 nM | – | – | – | –
CC(C)C[C@@H]1NC(=O)[C@@H](N(C)C(=O)[C@@H](NC(=O)[C@@H]2C[C@@H](F)CN2C(=O)C2(C(F)(F)F)CC(F)(F)C2)C2CC2)CCCCCCCN(C)C(=O)[C@H](Cc2cc(Cl)ccc2-c2cnn3c2CCC3)N(C)C1=O [Example 190] ({cBuCO(3,3-F2-1-CF3)}-[Pro(trans-4-F)][Gly(cPr)][NMehhhLys(Me)]L[X15]; lactam 3-C) | 10 nM | 20 nM | 1980 nM | 20 nM | 10 nM | 660 nM | – | – | – | –
CC(C)C[C@@H]1NC(=O)[C@@H](N(C)C(=O)[C@@H](NC(=O)[C@@H]2C[C@@H](F)CN2C(=O)C2(C(F)(F)F)CC(F)(F)C2)C2CC2)CCCCCCCN(C)C(=O)[C@H](Cc2cc(Cl)ccc2-c2cnn3c2OCCC3)N(C)C1=O [Example 191] ({cBuCO(3,3-F2-1-CF3)}-[Pro(trans-4-F)][Gly(cPr)][NMehhhLys(Me)]L[X5]; lactam 3-C) | 10 nM | 20 nM | 2050 nM | 20 nM | 10 nM | 260 nM | – | – | – | –
CC(C)C[C@@H]1NC(=O)[C@@H](N(C)C(=O)[C@@H](NC(=O)[C@@H]2C[C@@H](F)CN2C(=O)C2(C(F)(F)F)CC(F)(F)C2)C2CC2)CCCCCCCN(C)C(=O)[C@H](Cc2cc(Cl)ccc2-c2ccncc2)N(C)C1=O [Example 192] ({cBuCO(3,3-F2-1-CF3)}-[Pro(trans-4-F)][Gly(cPr)][NMehhhLys(Me)]L[X109]; lactam 3-C) | 20 nM | 20 nM | 3510 nM | 20 nM | 20 nM | 1140 nM | – | – | – | –
CC(C)C[C@@H]1NC(=O)[C@@H](N(C)C(=O)[C@@H](NC(=O)[C@@H]2C[C@@H](F)CN2C(=O)C2(C(F)(F)F)CC(F)(F)C2)C2CC2)CCCCCCCNC(=O)[C@H](Cc2cc(Cl)ccc2C2=CC3CCC(C2)N3C(=O)C(C)C)N(C)C1=O (stereo partly drawn) [Example 193] ({cBuCO(3,3-F2-1-CF3)}-[Pro(trans-4-F)][Gly(cPr)][NMe(hhhLys)]L[X57]; lactam 3-C) | 20 nM | 20 nM | 7580 nM | 20 nM | 10 nM | 710 nM | – | – | – | –
CC(C)C[C@@H]1NC(=O)[C@@H](N(C)C(=O)[C@@H](NC(=O)[C@@H]2C[C@@H](F)CN2C(=O)C2(C(F)(F)F)CC(F)(F)C2)C2CC2)CCCCCCCNC(=O)[C@H](Cc2cc(Cl)ccc2C2=CC3COCC(C2)N3C(=O)C(C)C)N(C)C1=O (stereo partly drawn) [Example 194] ({cBuCO(3,3-F2-1-CF3)}-[Pro(trans-4-F)][Gly(cPr)][NMe(hhhLys)]L[X75]; lactam 3-C) | 10 nM | 20 nM | 5610 nM | 20 nM | 10 nM | 540 nM | – | – | – | –
CSc1cncc(-c2ccc(Cl)cc2C[C@H]2C(=O)N(C)CCCCCCC[C@H](N(C)C(=O)[C@@H](NC(=O)[C@@H]3C[C@@H](F)CN3C(=O)C3(C(F)(F)F)CC(F)(F)C3)C3CC3)C(=O)N[C@@H](CC(C)C)C(=O)N2C)c1 [Example 202] ({cBuCO(3,3-F2-1-CF3)}-[Pro(trans-4-F)][Gly(cPr)][NMehhhLys(Me)]L[X51]; lactam 3-C) | 60 nM | 20 nM | 9110 nM | 50 nM | 40 nM | 1490 nM | – | – | – | –
CC(C)C[C@@H]1NC(=O)[C@@H](N(C)C(=O)[C@@H](NC(=O)[C@@H]2C[C@@H](F)CN2C(=O)C2(C(F)(F)F)CC3(CCC3)C2)C2CC2)CCCCCCCN(C)C(=O)[C@H](Cc2cc(Cl)ccc2-c2cnn(C)c2)N(C)C1=O [Example 203] ({Spiro(3.3)heptane2CO(2-CF3)}-[Pro(trans-4-F)][Gly(cPr)][NMehhhLys(Me)]L[X22]; lactam 3-C) | 50 nM | – | 3700 nM | – | 60 nM | – | 20 nM | 40 nM | 1260 nM | –
Cc1nc(C)c(-c2ccc(Cl)cc2C[C@H]2C(=O)N(C)CCCCCCC[C@H](N(C)C(=O)[C@@H](NC(=O)[C@@H]3C[C@@H](F)CN3C(=O)C3(C(F)(F)F)CC(F)(F)C3)C3CC3)C(=O)N[C@@H](CC(C)C)C(=O)N2C)s1 [Example 207] ({cBuCO(3,3-F2-1-CF3)}-[Pro(trans-4-F)][Gly(cPr)][NMehhhLys(Me)]L[X14]; lactam 3-C) | 40 nM | 20 nM | 4940 nM | 50 nM | 30 nM | 2730 nM | – | – | – | –
CC(C)C[C@@H]1NC(=O)[C@@H](N(C)C(=O)[C@@H](NC(=O)[C@@H]2C[C@@H](F)CN2C(=O)C2(C(F)(F)F)CC(F)(F)C2)C2CC2)CCCCCCCN(C)C(=O)[C@H](Cc2cc(Cl)ccc2-c2cnn(CC#N)c2)N(C)C1=O [Example 216] ({cBuCO(3,3-F2-1-CF3)}-[Pro(trans-4-F)][Gly(cPr)][NMehhhLys(Me)]L[X89]; lactam 3-C) | 10 nM | – | 15600 nM | – | 10 nM | – | 20 nM | 30 nM | 470 nM | –
CCN(C(=O)[C@@H](NC(=O)[C@@H]1C[C@@H](F)CN1C(=O)C1(C(F)(F)F)CC(F)(F)C1)C1CC1)[C@H]1CCCCCCCN(C)C(=O)[C@H](Cc2cc(Cl)cnc2OC2CC2)N(C)C(=O)[C@H](CC(C)C)NC1=O [Example 219] | 80 nM | – | 14100 nM | – | 40 nM | – | 20 nM | 100 nM | 1430 nM | –
CCN(C(=O)[C@@H](NC(=O)[C@@H]1C[C@@H](F)CN1C(=O)C1(C(F)(F)F)CCC1)C1CC1)[C@H]1CCCCCCCN(C)C(=O)[C@H](Cc2cc(Cl)cnc2OC2CC2)N(C)C(=O)[C@H](CC(C)C)NC1=O [Example 220] | 70 nM | – | 5200 nM | – | 30 nM | – | 20 nM | 90 nM | 680 nM | –
CCN(C(=O)[C@@H](NC(=O)[C@@H]1C[C@@H](F)CN1C(=O)[C@@]1(C(F)(F)F)CCCCO1)C1CC1)[C@H]1CCCCCCCN(C)C(=O)[C@H](Cc2cc(Cl)cnc2OC2CC2)N(C)C(=O)[C@H](CC(C)C)NC1=O [Example 221] | 30 nM | – | 16600 nM | – | 20 nM | – | 20 nM | 60 nM | 180 nM | –
COc1ncc(Cl)cc1C[C@H]1C(=O)N(C)CCCCCCC[C@H](N(C)C(=O)[C@@H](NC(=O)[C@@H]2C[C@@H](F)CN2C(=O)[C@@]2(C(F)(F)F)CCCCO2)C2CC2)C(=O)N[C@@H](CC(C)C)C(=O)N1C [Example 223] ({Oxane2carbonyl(2R-CF3)}-[Pro(trans-4-F)][Gly(cPr)][NMehhhLys(Me)]L[NMe3Pal(2-OMe,5-Cl)]; lactam 3-C) | 10 nM | – | 7760 nM | – | 10 nM | – | 20 nM | – | 100 nM | 20 nM
COc1ncc(Cl)cc1C[C@H]1C(=O)N(C)CCCCCCC[C@H](N(C)C(=O)[C@@H](NC(=O)[C@@H]2C[C@@H](F)CN2C(=O)C2(C(F)(F)F)CCC2)C2CC2)C(=O)N[C@@H](CC(C)C)C(=O)N1C [Example 224] ({Cyclobutanecarbonyl(1-CF3)}-[Pro(trans-4-F)][Gly(cPr)][NMehhhLys(Me)]L[NMe3Pal(2-OMe,5-Cl)]; lactam 3-C) | 10 nM | 20 nM | 12400 nM | 30 nM | 10 nM | 100 nM | – | – | – | –
CCOc1ncc(Cl)cc1C[C@H]1C(=O)N(C)CCCCCCC[C@H](N(C)C(=O)[C@@H](NC(=O)[C@@H]2C[C@@H](F)CN2C(=O)[C@@]2(C(F)(F)F)CCCCO2)C2CC2)C(=O)N[C@@H](CC(C)C)C(=O)N1C [Example 226] ({Oxane2carbonyl(2R-CF3)}-[Pro(trans-4-F)][Gly(cPr)][NMehhhLys(Me)]L[X25]; lactam 3-C) | 30 nM | – | 8390 nM | – | 20 nM | – | 20 nM | – | 100 nM | 20 nM
CCOc1ncc(Cl)cc1C[C@H]1C(=O)N(C)CCCCCCC[C@H](N(C)C(=O)[C@@H](NC(=O)[C@@H]2C[C@@H](F)CN2C(=O)C2(C(F)(F)F)CCC2)C2CC2)C(=O)N[C@@H](CC(C)C)C(=O)N1C [Example 227] ({Cyclobutanecarbonyl(1-CF3)}-[Pro(trans-4-F)][Gly(cPr)][NMehhhLys(Me)]L[X25]; lactam 3-C) | 40 nM | – | 14100 nM | – | 20 nM | – | 20 nM | 30 nM | 120 nM | –
